Measured values as given in patent US10550105B2 (Ribon Therapeutics Inc., priority 2018, dated 2020).

Molecular target: PARP7 (Homo sapiens (Human), UniProt Q7Z3E1)
Assay: Enzymatic assay for inhibition of PARP7: TR-FRET displacement of biotinylated Probe A from the TIPARP active site
Assay type: binding
Details: Table A-1
How it was run: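 Compounds were tested as dose-response series, and reactions were incubated a further 30 min at 25° C. TR-FRET was read at 320 nm excitation with 615 and 665 nm emission after a 90 μs delay. The 665/615 ratio gave the TIPARP–Probe A complex, and % inhibition was fitted against concentration.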

Chain of PARP7 (Q7Z3E1 whole entry): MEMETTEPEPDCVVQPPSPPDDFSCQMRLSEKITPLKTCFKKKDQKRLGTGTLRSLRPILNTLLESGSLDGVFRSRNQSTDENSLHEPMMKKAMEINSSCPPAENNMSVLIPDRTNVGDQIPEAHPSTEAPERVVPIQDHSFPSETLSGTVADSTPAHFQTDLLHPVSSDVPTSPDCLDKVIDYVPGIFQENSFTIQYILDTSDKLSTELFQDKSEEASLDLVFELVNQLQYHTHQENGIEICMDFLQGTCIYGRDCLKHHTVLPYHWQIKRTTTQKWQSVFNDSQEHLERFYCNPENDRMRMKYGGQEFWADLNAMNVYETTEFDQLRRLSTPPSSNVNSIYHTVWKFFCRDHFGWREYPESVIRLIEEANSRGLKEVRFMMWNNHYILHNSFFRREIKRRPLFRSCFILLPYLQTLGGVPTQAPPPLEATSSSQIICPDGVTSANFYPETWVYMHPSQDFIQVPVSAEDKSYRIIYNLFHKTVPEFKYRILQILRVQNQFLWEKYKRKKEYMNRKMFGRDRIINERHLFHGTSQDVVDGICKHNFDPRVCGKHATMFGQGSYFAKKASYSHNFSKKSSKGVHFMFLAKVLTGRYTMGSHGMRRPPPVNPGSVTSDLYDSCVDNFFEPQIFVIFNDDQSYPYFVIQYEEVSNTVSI

**Q.** Which IC50 does the source give for `COCCOc1ccc2c(n1)CN(c1cn[nH]c(=O)c1C(F)(F)F)C2` [Example 311, 5-(2-(2-Methoxyethoxy)-5,7-dihydro-6H-pyrrolo[3,4-b]pyridin-6-yl)-4-(trifluoromethyl)pyridazin-3(2H)-one] here?
**A.** 100 to 1000 nM

**Q.** Which IC50 does the source give for `N#Cc1ccc(N2CCN(C(=O)c3ccnc(OCC4c5ccccc5CN4c4cn[nH]c(=O)c4C(F)(F)F)n3)CC2)nc1` (centres unmarked) [Example 383, 6-(4-(2-((2-(6-Oxo-5-(trifluoromethyl)-1,6-dihydropyridazin-4-yl)isoindolin-1-yl)methoxy)pyrimidine-4-carbonyl)piperazin-1-yl)nicotinonitrile] here?
**A.** < 100 nM

**Q.** Which IC50 does the source give for `O=c1[nH]ncc(N2Cc3ccccc3C2CO)c1C(F)(F)F` (centres unmarked) [Example 235, 5-(1-(Hydroxymethyl)isoindolin-2-yl)-4-(trifluoromethyl)pyridazin-3(2H)-one] here?
**A.** ≥ 1000 nM

**Q.** For `C[C@@H](CC(=O)N1CCN(c2ccc(C#N)cn2)CC1)OC[C@@H]1CCCN1c1cn[nH]c(=O)c1C(F)(F)F` [Example 123B, 6-[4-[(3S)-3-[[(2S)-1-[6-oxo-5-(trifluoromethyl)-1,6-dihydropyridazin-4-yl]pyrrolidin-2-yl]methoxy]butanoyl]piperazin-1-yl]pyridine-3-carbonitrile], which IC50 is on record?
**A.** < 100 nM

**Q.** How did the IC50 turn out when `N#Cc1ccc(NC2CCN(C(=O)CCOC[C@@H]3CCCN3c3cn[nH]c(=O)c3C(F)(F)F)CC2)nc1` [Example 116, 6-[[1-(3-[[(2S)-1-[6-oxo-5-(trifluoromethyl)-1,6-dihydropyridazin-4-yl]pyrrolidin-2-yl]methoxy]propanoyl)piperidin-4-yl]amino]pyridine-3-carbonitrile] was run?
**A.** < 100 nM

**Q.** `O=c1[nH]ncc(N2Cc3cccc(N4CCOCC4)c3C2)c1C(F)(F)F` [Example 253, 5-(4-Morpholinoisoindolin-2-yl)-4-(trifluoromethyl)pyridazin-3(2H)-one] was tested. Which IC50 did it give?
**A.** 100 to 1000 nM

**Q.** Which IC50 does the source give for `C[C@H]1CN(c2ccc(C#N)cn2)CCN1C(=O)CCOC[C@@H]1CCCN1c1cn[nH]c(=O)c1C(F)(F)F` [Example 100B, 6-[(3S)-3-methyl-4-(3-[[(2S)-1-[6-oxo-5-(trifluoromethyl)-1,6-dihydropyridazin-4-yl]pyrrolidin-2-yl]methoxy]propanoyl)piperazin-1-yl]pyridine-3-carbonitrile] here?
**A.** < 100 nM

**Q.** `N#Cc1cnc(N2CCN(C(=O)c3cncc(OC[C@@H]4c5ccccc5CN4c4cn[nH]c(=O)c4C(F)(F)F)c3)CC2)nc1` [Example 395, (S)-2-(4-(5-((2-(6-Oxo-5-(trifluoromethyl)-1,6-dihydropyridazin-4-yl)isoindolin-1-yl)methoxy)nicotinoyl)piperazin-1-yl)pyrimidine-5-carbonitrile] was tested. Which IC50 did it give?
**A.** < 100 nM

**Q.** For `C[C@@H](COCCC(=O)N1CCN(c2cnc(C(F)(F)F)cn2)CC1)Nc1cn[nH]c(=O)c1C(F)(F)F` [Example 613, (S)-5-((1-(3-Oxo-3-(4-(5-(trifluoromethyl)pyrazin-2-yl)piperazin-1-yl)propoxy)propan-2-yl)amino)-4-(trifluoromethyl)pyridazin-3(2H)-one], which IC50 is on record?
**A.** < 100 nM

**Q.** Which IC50 does the source give for `N#Cc1ccc(N2CCN(C(=O)C[C@@H]3CC[C@@H]([C@H]4c5ccccc5CN4c4cn[nH]c(=O)c4C(F)(F)F)O3)CC2)nc1` (single isomer, unassigned) [Example 612 Isomer D] here?
**A.** ≥ 1000 nM

**Q.** For `CO[C@H]1C[C@@H](COCCC(=O)N2CCN(c3ccc(C#N)cn3)CC2)N(c2cn[nH]c(=O)c2C(F)(F)F)C1` [Example 122, 6-[4-(3-[[(2S,4S)-4-methoxy-1-[6-oxo-5-(trifluoromethyl)-1,6-dihydropyridazin-4-yl]pyrrolidin-2-yl]methoxy]propanoyl)piperazin-1-yl]pyridine-3-carbonitrile], which IC50 is on record?
**A.** < 100 nM

**Q.** `CCC1c2ccccc2CN1c1cn[nH]c(=O)c1C(F)(F)F` (centres unmarked) [Example 310, 5-(1-Ethylisoindolin-2-yl)-4-(trifluoromethyl)pyridazin-3(2H)-one] was tested. Which IC50 did it give?
**A.** ≥ 1000 nM

**Q.** `CC(=O)N(C)CCOc1cccc2c1CN(c1cn[nH]c(=O)c1C(F)(F)F)C2` [Example 224, N-Methyl-N-(2-((2-(6-oxo-5-(trifluoromethyl)-1,6-dihydropyridazin-4-yl)isoindolin-4-yl)oxy)ethyl)acetamide] was tested. Which IC50 did it give?
**A.** < 100 nM

**Q.** How did the IC50 turn out when `COCC1c2ccccc2CN1c1cn[nH]c(=O)c1C(F)(F)F` (centres unmarked) [Example 239, 5-(1-(Methoxymethyl)isoindolin-2-yl)-4-(trifluoromethyl)pyridazin-3(2H)-one] was run?
**A.** ≥ 1000 nM

**Q.** How did the IC50 turn out when `C[C@@H](CSCCC(=O)N1CCN(c2ncc(C(F)(F)F)cn2)CC1)Nc1cn[nH]c(=O)c1C(F)(F)F` [Example 702, (S)-5-((1-((3-Oxo-3-(4-(5-(trifluoromethyl)pyrimidin-2-yl)piperazin-1-yl)propyl)thio)propan-2-yl)amino)-4-(trifluoromethyl)pyridazin-3(2H)-one] was run?
**A.** < 100 nM

**Q.** `O=C(CCOC[C@H](CO)Nc1cn[nH]c(=O)c1C(F)(F)F)N1CCN(c2ccc(Cl)cn2)CC1` [Example 633, (S)-5-((1-(3-(4-(5-Chloropyridin-2-yl)piperazin-1-yl)-3-oxopropoxy)-3-hydroxypropan-2-yl)amino)-4-(trifluoromethyl)pyridazin-3(2H)-one] was tested. Which IC50 did it give?
**A.** < 100 nM

**Q.** `N#Cc1cnc(N2CCN(C(=O)c3cncc(OC[C@@H]4CCCN4c4cn[nH]c(=O)c4C(F)(F)F)c3)CC2)cn1` [Example 444, (S)-5-(4-(5-((1-(6-Oxo-5-(trifluoromethyl)-1,6-dihydropyridazin-4-yl)pyrrolidin-2-yl)methoxy)nicotinoyl)piperazin-1-yl)pyrazine-2-carbonitrile] was tested. Which IC50 did it give?
**A.** < 100 nM

**Q.** For `[2H]C1([2H])N(C(=O)CCOC[C@H](C)Oc2cn[nH]c(=O)c2C(F)(F)F)C([2H])([2H])C([2H])([2H])N(c2ncc(Cl)cn2)C1([2H])[2H]` [Example 715, (S)-5-((1-(3-(4-(5-Chloropyrimidin-2-yl)piperazin-1-yl-2,2,3,3,5,5,6,6-d8)-3-oxopropoxy)propan-2-yl)oxy)-4-(trifluoromethyl)pyridazin-3(2H)-one], which IC50 is on record?
**A.** < 100 nM

**Q.** How did the IC50 turn out when `N#Cc1ccc(N2CCN(C(=O)c3ccc(OCCOCC4CCN(c5cn[nH]c(=O)c5C(F)(F)F)C4)cc3)CC2)nc1` (centres unmarked) [Example 465, 6-(4-(4-(2-((1-(6-Oxo-5-(trifluoromethyl)-1,6-dihydropyridazin-4-yl)pyrrolidin-3-yl)methoxy)ethoxy)benzoyl)piperazin-1-yl)nicotinonitrile] was run?
**A.** < 100 nM

**Q.** With `O=c1[nH]ncc(N2Cc3ccccc3C2)c1Cl` [Example 151, 4-Chloro-5-(isoindolin-2-yl)pyridazin-3(2H)-one] as the compound, how does the IC50 read?
**A.** 100 to 1000 nM

**Q.** For `CNCCOc1cccc2c1CN(c1cn[nH]c(=O)c1C(F)(F)F)C2` [Example 217, 5-(4-(2-(Methylamino)ethoxy)isoindolin-2-yl)-4-(trifluoromethyl)pyridazin-3(2H)-one], which IC50 is on record?
**A.** 100 to 1000 nM

**Q.** Which IC50 does the source give for `N#Cc1ccc(N2CCN(C(=O)CCOC[C@H](Nc3cn[nH]c(=O)c3C(F)(F)F)c3ccncc3)CC2)nc1` [Example 527B, 6-(4-[3-[(2R)-2-[[6-Oxo-5-(trifluoromethyl)-1,6-dihydropyridazin-4-yl]amino]-2-(pyridin-4-yl)ethoxy]propanoyl]piperazin-1-yl)pyridine-3-carbonitrile] here?
**A.** ≥ 1000 nM

**Q.** For `O=C(CCOC[C@H](CC1CCNCC1)Nc1cn[nH]c(=O)c1C(F)(F)F)N1CCN(c2ncc(C(F)(F)F)cn2)CC1` [Example 648, (S)-5-((1-(3-Oxo-3-(4-(5-(trifluoromethyl)pyrimidin-2-yl)piperazin-1-yl)propoxy)-3-(piperidin-4-yl)propan-2-yl)amino)-4-(trifluoromethyl)pyridazin-3(2H)-one], which IC50 is on record?
**A.** ≥ 1000 nM
